Like-named read-outs stand apart in the source and are kept apart here.
How the values were obtained:
HCC827/ER cells = assay: Cell viability assay (CellTiter-Glo 2.0), erlotinib-resistant HCC827/ER cells; assay type: cell-based, human; conditions: Homo sapiens, HCC827ER, read-out: Relative cell viability
From the text: (§1) To explore c-MET and AXL mechanisms of EGFR TKI resistance, resistant cells of the EGFR TKI hypersensitive EGFR exon 19 mutant NSCLC cell line, HCC827 and PC9 were generated by exposing these cells to increasing concentrations of EGFR TKI for over 3 months.
(§2) Gefitinib-resistant cells were referred to as HCC827/GR. […] Osimertinib-resistant cells were referred to as HCC827/OR.

HCC827/OR cells = assay: Cell viability assay (CellTiter-Glo 2.0), osimertinib-resistant HCC827/OR cells; assay type: cell-based, human; conditions: Homo sapiens, HCC827, 72 h drug treatment, read-out: Relative cell viability, IC50 HCC827OR
From the text: as §1, §2

HCC827/GR cells = assay: Cell viability assay (CellTiter-Glo 2.0), gefitinib-resistant HCC827/GR cells; assay type: cell-based, human; conditions: Homo sapiens, HCC827, 72 h drug treatment, read-out: Relative cell viability, IC50 HCC827GR
From the text: as §1
The human cell line HCC827 was purchased from the American Type Culture Collection (Manassas, VA), and the PC9 cell line was obtained from RIKEN Cell Bank (Ibaraki, Japan). […] Gefitinib-resistant cells were referred to as HCC827/GR. […] Osimertinib-resistant cells were referred to as HCC827/OR.
(§3) Cell viability assays were carried out by plating 1,000 cells per well of HCC827 or PC9 resistant cells, respectively, into white transparent-bottom 384-well plates. The cells were treated with each TKI across a 10-dose range from 1 nM to 10,000 nM. After 72 h of drug treatment, cell viability was measured using the CellTiter-Glo 2.0 assay (Promega, Madison, WI).
as §3

PC9/ER cells = assay: Cell viability assay (CellTiter-Glo 2.0), erlotinib-resistant PC9/ER cells; assay type: cell-based; conditions: Homo sapiens, PC-9/ER, 72 h drug treatment, read-out: Relative cell viability, IC50 PC9ER
From the text: as §1, §2

[1] = Table 2, 72 h drug treatment, EGFR TKI resistant cells, combination with EGFR TKI
[2] = Table 2, EGFR TKI resistant cells, combination with EGFR TKI
[3] = Table 4, 72 h drug treatment, combinations of EGFR TKIs and inhibitor of Formula (I)
[4] = Table 4, combinations of EGFR TKIs and inhibitor of Formula (I)

Row | IC50 (HCC827/ER cells; [1]) [nM] | IC50 (HCC827/OR cells; [2]) [nM] | IC50 (HCC827/GR cells; [2]) [nM] | IC50 (PC9/ER cells; [2]) [nM] | IC50 (HCC827/ER cells; [3]) [nM] | IC50 (HCC827/OR cells; [4]) [nM] | IC50 (HCC827/GR cells; [4]) [nM] | IC50 (PC9/ER cells; [4]) [nM] | SMILES
1 | < 100 | < 10 | < 100 | < 10 |  |  |  |  | CC(C)n1cc(C(=O)Nc2ccc(Oc3ccnc(N)c3C#CC3CCN(C)CC3)c(F)c2)c(=O)n(-c2ccc(F)cc2)c1=O [Example 23, N-(4-(2-amino-3-((1-methylpiperidin-4-yl)ethynyl)pyridin-4-yloxy)-3-fluorophenyl)-3-(4-fluorophenyl)-1-isopropyl-2,4-dioxo-1,2,3,4-tetrahydropyrimidine-5-carboxamide]
2 | < 10 | < 10 | < 10 | < 10 |  |  |  |  | CC(C)n1cc(C(=O)Nc2ccc(Oc3ccnc(N)c3C#CCN3CCOCC3)c(F)c2)c(=O)n(-c2ccc(F)cc2)c1=O [Example 24, N-(4-(2-amino-3-(3-morpholinoprop-1-ynyl)pyridin-4-yloxy)-3-fluorophenyl)-3-(4-fluorophenyl)-1-isopropyl-2,4-dioxo-1,2,3,4-tetrahydropyrimidine-5-carboxamide]
3 | < 10 | < 10 | < 100 | < 1000 |  |  |  |  | CC(C)n1cc(C(=O)Nc2ccc(Oc3ccnc(N)c3C#CCN3CCN(C)CC3)c(F)c2)c(=O)n(-c2ccc(F)cc2)c1=O [Example 26, N-(4-(2-amino-3-(3-(4-methylpiperazin-1-yl)prop-1-ynyl)pyridine-4-yloxy)-3-fluorophenyl)-3-(4-fluorophenyl)-1-isopropyl-2,4-dioxo-1,2,3,4-tetrahydropyrimidine-5-carboxamide]
4 | < 10 | < 10 | < 10 | < 10 |  |  |  |  | COCCN1CCC(CC#Cc2c(Oc3ccc(NC(=O)c4cn(C(C)C)c(=O)n(-c5ccc(F)cc5)c4=O)cc3F)ccnc2N)CC1 [Example 28, N-(4-(2-amino-3-(3-(1-(2-methoxyethyl)piperidin-4-yl)prop-1-ynyl)pyridin-4-yloxy)-3-fluorophenyl)-3-(4-fluorophenyl)-1-isopropyl-2,4-dioxo-1,2,3,4-tetrahydropyrimidine-5-carboxamide]
5 |  |  |  |  | < 10000 | < 10000 | > 10000 | > 10000 | CN(C)C(=O)Cn1cc(C(=O)Nc2ccc(Oc3ccnc(N)c3C#CC(C)(C)N3CCNCC3)c(F)c2)c(=O)n(-c2ccc(F)cc2)c1=O [Example 35, N-(4-((2-amino-3-(3-methyl-3-(piperazin-1-yl)but-1-yn-1-yl)pyridin-4-yl)oxy)-3-fluorophenyl)-1-(2-(dimethylamino)-2-oxoethyl)-3-(4-fluorophenyl)-2,4-dioxo-1,2,3,4-tetrahydropyrimidine-5-carboxamide]
6 |  |  |  |  | < 10000 | < 10000 | < 10000 | < 10000 | CN1CCN(C(C)(C)C#Cc2c(Oc3ccc(NC(=O)c4cn(CC(=O)N(C)C)c(=O)n(-c5ccc(F)cc5)c4=O)cc3F)ccnc2N)CC1 [Example 36, N-(4-((2-amino-3-(3-methyl-3-(4-methylpiperazin-1-yl)but-1-yn-1-yl)pyridin-4-yl)oxy)-3-fluorophenyl)-1-(2-(dimethylamino)-2-oxoethyl)-3-(4-fluorophenyl)-2,4-dioxo-1,2,3,4-tetrahydropyrimidine-5-carboxamide]
7 |  |  |  |  | < 10000 | < 10000 | < 10000 | < 10000 | CN1CCC(CC#Cc2c(Oc3ccc(NC(=O)c4cn(CC(=O)N(C)C)c(=O)n(-c5ccc(F)cc5)c4=O)cc3F)ccnc2N)CC1 [Example 37, N-(4-((2-amino-3-(3-(1-methylpiperidin-4-yl)prop-1-yn-1-yl)pyridin-4-yl)oxy)-3-fluorophenyl)-1-(2-(dimethylamino)-2-oxoethyl)-3-(4-fluorophenyl)-2,4-dioxo-1,2,3,4-tetrahydropyrimidine-5-carboxamide]
8 |  |  |  |  | < 100 | < 1000 | < 100 | < 100 | Cc1nc(Cn2cc(C(=O)Nc3ccc(Oc4ccnc(N)c4C#CCN4CCOCC4)c(F)c3)c(=O)n(-c3ccc(F)cc3)c2=O)cs1 [Example 40, N-(4-((2-amino-3-(3-morpholinoprop-1-yn-1-yl)pyridin-4-yl)oxy)-3-fluorophenyl)-3-(4-fluorophenyl)-1-((2-methylthiazol-4-yl)methyl)-2,4-dioxo-1,2,3,4-tetrahydropyrimidine-5-carboxamide]

Continued, compound first:

Row | SMILES | IC50 (HCC827/ER cells; [1]) [nM] | IC50 (HCC827/OR cells; [2]) [nM] | IC50 (HCC827/GR cells; [2]) [nM] | IC50 (PC9/ER cells; [2]) [nM] | IC50 (HCC827/ER cells; [3]) [nM] | IC50 (HCC827/OR cells; [4]) [nM] | IC50 (HCC827/GR cells; [4]) [nM] | IC50 (PC9/ER cells; [4]) [nM]
9 | CC(C)n1cc(C(=O)Nc2ccc(Oc3ccnc(N)c3-c3ccccc3)c(F)c2)c(=O)n(-c2ccc(F)cc2)c1=O [Example 22, N-(4-(2-amino-3-phenylpyridin-4-yloxy)-3-fluorophenyl)-3-(4-fluorophenyl)-1-isopropyl-2,4-dioxo-1,2,3,4-tetrahydropyrimidine-5-carboxamide] | < 100 | < 100 | < 10 | < 100 |  |  |  | 
10 | CC(C)n1cc(C(=O)Nc2ccc(Oc3ccnc(N)c3C#CC(C)(C)N3CCOCC3)c(F)c2)c(=O)n(-c2ccc(F)cc2)c1=O [Example 25, N-(4-(2-amino-3-(3-methyl-3-morpholinobut-1-ynyl)pyridin-4-yloxy)-3-fluorophenyl)-3-(4-fluorophenyl)-1-isopropyl-2,4-dioxo-1,2,3,4-tetrahydropyrimidine-5-carboxamide] | < 10 | < 10 | < 10 | < 10 |  |  |  | 
11 | CC(C)n1cc(C(=O)Nc2ccc(Oc3ccnc(N)c3C#CCC3CCNCC3)c(F)c2)c(=O)n(-c2ccc(F)cc2)c1=O [Example 27, N-(4-(2-amino-3-(3-(piperidin-4-yl)prop-1-ynyl)pyridin-4-yloxy)-3-fluorophenyl)-3-(4-fluorophenyl)-1-isopropyl-2,4-dioxo-1,2,3,4-tetrahydropyrimidine-5-carboxamide] | < 10 | < 10 | < 10 | < 10 |  |  |  | 
12 | CC(C)N1CCC(CC#Cc2c(Oc3ccc(NC(=O)c4cn(C(C)C)c(=O)n(-c5ccc(F)cc5)c4=O)cc3F)ccnc2N)CC1 [Example 29, N-(4-(2-amino-3-(3-(1-isopropylpiperidin-4-yl)prop-1-ynyl)pyridin-4-yloxy)-3-fluorophenyl)-3-(4-fluorophenyl)-1-isopropyl-2,4-dioxo-1,2,3,4-tetrahydropyrimidine-5-carboxmide] | < 10 | < 10 | < 10 | < 10 |  |  |  | 
13 | CN(C)C(=O)Cn1cc(C(=O)Nc2ccc(Oc3ccnc(N)c3C#CC(C)(C)N3CCOCC3)c(F)c2)c(=O)n(-c2ccc(F)cc2)c1=O [Example 33, N-(4-((2-amino-3-(3-methyl-3-morpholinobut-1-yn-1-yl)pyridin-4-yl)oxy)-3-fluorophenyl)-1-(2-(dimethylamino)-2-oxoethyl)-3-(4-fluorophenyl)-2,4-dioxo-1,2,3,4-tetrahydropyrimidine-5-carboxamide] |  |  |  |  | < 1000 | < 1000 | < 1000 | < 1000
14 | CN(C)C(=O)Cn1cc(C(=O)Nc2ccc(Oc3ccnc(N)c3C#CCN3CCOCC3)c(F)c2)c(=O)n(-c2ccc(F)cc2)c1=O [Example 34, N-(4-((2-amino-3-(3-morpholinoprop-1-yn-1-yl)pyridin-4-yl)oxy)-3-fluorophenyl)-1-(2-(dimethylamino)-2-oxoethyl)-3-(4-fluorophenyl)-2,4-dioxo-1,2,3,4-tetrahydropyrimidine-5-carboxamide] |  |  |  |  | < 1000 | < 10000 | < 1000 | < 10000
15 | CN(C)C(=O)Cn1cc(C(=O)Nc2ccc(Oc3ccnc(N)c3C#CCC3CCNCC3)c(F)c2)c(=O)n(-c2ccc(F)cc2)c1=O [Example 38, N-(4-((2-amino-3-(3-(piperidin-4-yl)prop-1-yn-1-yl)pyridin-4-yl)oxy)-3-fluorophenyl)-1-(2-(dimethylamino)-2-oxoethyl)-3-(4-fluorophenyl)-2,4-dioxo-1,2,3,4-tetrahydropyrimidine-5-carboxamide] |  |  |  |  | < 10000 | < 10000 | < 10000 | < 10000
16 | Cc1nc(Cn2cc(C(=O)Nc3ccc(Oc4ccnc(N)c4C#CC(C)(C)N4CCOCC4)c(F)c3)c(=O)n(-c3ccc(F)cc3)c2=O)cs1 [Example 39, N-(4-((2-amino-3-(3-methyl-3-morpholinobut-1-yn-1-yl)pyridin-4-yl)oxy)-3-fluorophenyl)-3-(4-fluorophenyl)-1-((2-methylthiazol-4-yl)methyl)-2,4-dioxo-1,2,3,4-tetrahydropyrimidine-5-carboxamide] |  |  |  |  | < 100 | < 100 | < 100 | < 100
